Tests used:
Phytophthora infestans = assay type: in vivo; details: tomato plants, protective spray, active ingredient concentration 100 ppm, evaluation 7 days after inoculation; 0% = control, 100% = no infection
Plasmopara viticola = assay: Plasmopara test (grapevine)/protective; assay type: in vivo; details: grapevine young plants, protective spray, active ingredient concentration 10 ppm, evaluation 6 days after inoculation; 0% = control, 100% = no infection
Method: Plasmopara Test (Grapevine)/Protective
To produce an appropriate active ingredient formulation, 1 part by weight of active ingredient is mixed with the specified amounts of solvent and emulsifier, and the concentrate is diluted with water to the desired concentration.
To test for protective efficacy, young plants are sprayed with the active ingredient formulation at the stated application rate. After the spray coating has dried on, the plants are inoculated with an aqueous spore suspension of Plasmopara viticola and then remain in an incubation cabin at approx. 20° C. and 100% relative air humidity for 1 day. Subsequently, the plants are placed in a greenhouse at approx. 21° C. and approx. 90% air humidity for 4 days. The plants are then moistened and placed in an incubation cabin for 1 day.
Evaluation follows 6 days after the inoculation. 0% means an efficacy which corresponds to that of the control, whereas an efficacy of 100% means that no infection is observed.
In this test, the following inventive compounds show, at an active ingredient concentration of 10 ppm, an efficacy of 70% or more: […]

Peronospora brassicae = assay: Peronospora test (oilseed rape seeds)/seed treatment; assay type: in vivo; details: seed treatment, dose 50 g/dt, infected leaf area per plant after 7 days incubation, 0% = control, 100% = no disease
Method: Peronospora Test (Oilseed Rape Seeds)/Seed Treatment
The test was conducted under greenhouse conditions.
Oilseed rape seeds treated with an inventive active compound or a combination of inventive active compounds dissolved in N-methyl-2-pyrrolidone and diluted with water to the desired dose were sown in 6*6 cm vessels. The vessels contain 4 cm of a 1:1 mixture of steam-treated field soil and sand. The plants grew at 10° C.
14-day-old plants were inoculated with an aqueous spore suspension of Peronospora brassicae. The vessels containing the plants were incubated in a greenhouse at a temperature of 15° C. and a relative air humidity of 100% for 7 days.
The assessment of the test included the evaluation of the infected leaf area per plant. 0% means an efficiency corresponding to that of the control, while an efficiency of 100% means that no disease is observed.

[1] = for logp [a]: pH 2.7; for logp [b]: pH 7.8

| Structure (SMILES) | Eff. % (Phytophthora infestans) [%] | Eff. % (Plasmopara viticola) [%] | Eff. % (Peronospora brassicae) [%] | logp [a] [1] | logp [b] [1] | chromatographic logP (physchem; pH 2.7) | chromatographic logP (physchem; pH 7.8) |
| --- | --- | --- | --- | --- | --- | --- | --- |
| O=C(Cn1nc(C(F)F)cc1C(F)F)N1CCC(c2nc(C3=NOC(c4ccccc4C=NO)C3)cs2)CC1 (mixture of isomers) [I-4] | 100 | 100 | 92 |  |  |  |  |
| Cc1cc(C(F)(F)F)nn1CC(=O)N1CCC(c2nc(C3=NOC(c4ccccc4C=NO)C3)cs2)CC1 (mixture of isomers) [I-38] | 100 | 95 | 86 |  |  |  |  |
| CON=Cc1cccc(F)c1C1CC(c2csc(C3CCN(C(=O)Cn4nc(C(F)F)cc4C(F)F)CC3)n2)=NO1 (mixture of isomers) [I-60] | 84 | 100 | 95 | 3.49[a], | 3.38[b] |  |  |
| Cc1cc(C(F)(F)F)nn1CC(=O)N1CCC(c2nc(C3=NOC(c4ccccc4OS(=O)(=O)C4CC4)C3)cs2)CC1 (racemic) [I-61] | 89 | 100 | 90 | 3.29[a], | 3.31[b] |  |  |
| Cc1cc(C(F)(F)F)nn1CC(=O)N1CCC(c2nc(C3=NOC(c4ccccc4OS(C)(=O)=O)C3)cs2)CC1 (racemic) [I-62] | 89 | 100 | 90 | 3.07[a], | 2.98[b] |  |  |
| C[Si](C)(C)C#CCOc1ccccc1C1CC(c2csc(C3CCN(C(=O)Cn4nc(C(F)F)cc4C(F)F)CC3)n2)=NO1 (stereo not drawn) [I-1, 2-[3,5-Bis(difluoromethyl)-1H-pyrazol-1-yl]-1-(4-{4-[5-(2-{[3-(trimethylsilyl)prop-2-yn-1-yl]oxy}phenyl)-4,5-dihydro-1,2-oxazol-3-yl]-1,3-thiazol-2-yl}piperidin-1-yl)ethanone] |  |  |  |  |  | 4.71 | 4.58 |
| CC(C)(C)OC(=O)Nc1ccc(C2CC(c3csc(C4CCN(C(=O)Cn5nc(C(F)F)cc5C(F)F)CC4)n3)=NO2)cc1 (stereo not drawn) [I-17, tert-Butyl (4-{3-[2-(1-([3,5-bis(difluoromethyl)-1H-pyrazol-1-yl]acetyl}piperidin-4-yl)-1,3-thiazol-4-yl]-4,5-dihydro-1,2-oxazol-5-yl)phenyl)carbamate] |  |  |  |  |  | 3.45 | 3.46 |
| CON=Cc1ccccc1C1CC(c2csc(C3CCN(C(=O)Cn4nc(C(F)F)cc4C(F)F)CC3)n2)=NO1 (stereo not drawn) [I-26, 2-{3-[2-(1-{[3,5-Bis(difluoromethyl)-1H-pyrazol-1-yl]acetyl}piperidin-4-yl)-1,3-thiazol-4-yl]-4,5-dihydro-1,2-oxazol-5-yl}benzaldehyde O-methyloxime] |  | 100 |  |  |  | 3.59 |  |
| CON=Cc1ccccc1C1CC(c2csc(C3CCN(C(=O)Nc4cc(Cl)ccc4C)CC3)n2)=NO1 (stereo not drawn) [I-41, N-(5-Chloro-2-methylphenyl)-4-[4-(5-{2-[(methoxyimino)methyl]phenyl}-4,5-dihydro-1,2-oxazol-3-yl)-1,3-thiazol-2-yl]piperidine-1-carboxamide] |  | 81 |  |  |  | 3.95 |  |
| CCS(=O)(=O)Oc1ccccc1C1CC(c2csc(C3CCN(C(=O)Cn4nc(C(F)F)cc4C(F)F)CC3)n2)=NO1 (stereo not drawn) [I-65] | 100 | 100 | 90 | 3.1[a], | 3.09[b] |  |  |
| CS(=O)(=O)Oc1ccccc1C1CC(c2csc(C3CCN(C(=O)Cn4nc(C(F)F)cc4C(F)F)CC3)n2)=NO1 (stereo not drawn) [I-124] | 100 | 100 | 100 | 2.86[a], | 2.86[b] |  |  |
| O=C(Oc1ccccc1C1CC(c2csc(C3CCN(C(=O)Cn4nc(C(F)F)cc4C(F)F)CC3)n2)=NO1)c1cccc(F)c1 (stereo not drawn) [I-129] | 98 | 98 |  | 3.76[a], | 3.7[b] |  |  |
| O=C(Oc1ccccc1C1CC(c2csc(C3CCN(C(=O)Cn4nc(C(F)F)cc4C(F)F)CC3)n2)=NO1)c1ccccc1F (stereo not drawn) [I-130] | 100 | 100 |  | 3.61[a], | 3.58[b] |  |  |
| O=C(Oc1ccccc1C1CC(c2csc(C3CCN(C(=O)Cn4nc(C(F)F)cc4C(F)F)CC3)n2)=NO1)c1ccccc1 (stereo not drawn) [I-131] | 100 | 94 |  | 3.69[a], | 3.65[b] |  |  |
| O=C(Oc1ccccc1C1CC(c2csc(C3CCN(C(=O)Cn4nc(C(F)F)cc4C(F)F)CC3)n2)=NO1)c1ccc(F)cc1 (stereo not drawn) [I-132] | 100 | 96 |  | 3.73[a], | 3.7[b] |  |  |
| C[Si](C)(C)C#Cc1ccccc1C1CC(c2csc(C3CCN(C(=O)Cn4nc(C(F)F)cc4C(F)F)CC3)n2)=NO1 (stereo not drawn) [I-133] | 100 | 85 |  | 4.78[a], | 4.79[b] |  |  |
| C#CCOCc1ccccc1C1CC(c2csc(C3CCN(C(=O)Cn4nc(C(F)F)cc4C(F)F)CC3)n2)=NO1 (stereo not drawn) [I-138] | 93 | 98 |  | 3.74[a] |  |  |  |
| Cc1cc(C(F)(F)F)nn1CC(=O)N1CCC(c2nc(C3=NOC(c4ccccc4OCC#N)C3)cs2)CC1 (stereo not drawn) [I-140] | 84 | 100 |  | 2.97[a], | 2.98[b] |  |  |
